From US8796256B2 (Janssen Pharmaceutica NV, priority 2010, dated 2014) come the findings set out here.

As a reminder, the EC50 is the concentration giving half of the maximal effect. Low readings indicate a more potent agent, high ones a less potent agent.

For the test, the target named is T1, ERR1 (also known as ERR-α or ERR-1) (Homo sapiens, UniProt P11474).
T1 sequence (P11474 193-421 limits assumed): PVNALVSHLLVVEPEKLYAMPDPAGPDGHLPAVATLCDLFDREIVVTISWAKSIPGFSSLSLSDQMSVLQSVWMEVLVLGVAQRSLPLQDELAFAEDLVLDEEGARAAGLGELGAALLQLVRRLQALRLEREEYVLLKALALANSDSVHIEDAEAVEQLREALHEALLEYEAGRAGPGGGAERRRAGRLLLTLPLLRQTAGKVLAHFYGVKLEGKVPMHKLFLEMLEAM
Put plainly: TR-FRET assay (disruption of co-activator peptide binding to ERR1 LBD). Type of test: biochemical. Conditions: 6 nM 6His-ERR1LBD, 6 nM GST-SRC-2 peptide; average of 3 independent experiments. The method, boiled down:
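His-tagged ERR1 ligand-binding domain and GST-labelled SRC-2 peptide, each 6 nM, equilibrated at 25° C for 4-18 h in Tris pH 8/Hepes/KCl/DTT/delipidated BSA buffer. Compound-induced loss of co-activator binding read as Eu cryptate→XL665 energy transfer; values from hyperbolic curve fits averaged over 3 independent runs.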
Background: In TR-FRET formats the signal depends on donor and acceptor labels being close together.
In turn, `NS(=O)(=O)N1CCC(N2C(=O)S/C(=C\c3ccc4c(cnn4Cc4ccc(Cl)cc4C(F)(F)F)c3)C2=O)CC1` [Compound 34, 4-[(5Z)-5-({1-[4-Chloro-2-(trifluoromethyl)benzyl]-1H-indazol-5-yl}methylidene)-2,4-dioxo-1,3-thiazolidin-3-yl]piperidine-1-sulfonamide] showed an EC50 of 23 nM.

For the compound `Nc1nc(CN2C(=O)S/C(=C\c3ccc4c(cnn4Cc4ccc(Cl)cc4C(F)(F)F)c3)C2=O)c[nH]1` [Compound 231, (5Z)-3-[(2-Amino-1H-imidazol-4-yl)methyl]-5-({1-[4-chloro-2-(trifluoromethyl)benzyl]-1H-indazol-5-yl}methylidene)-1,3-thiazolidine-2,4-dione], the response was half-maximal at 46 nM (EC50).

As for `O=C1S/C(=C\c2ccc3c(ccn3Cc3ccc(Cl)cc3C(F)(F)F)c2)C(=O)N1CCN1CCOCC1` [Compound 254, (5Z)-5-({1-[4-Chloro-2-(trifluoromethyl)benzyl]-1H-indol-5-yl}methylidene)-3-(2-morpholin-4-ylethyl)-1,3-thiazolidine-2,4-dione], the response was half-maximal at 320 nM (EC50).

`NS(=O)(=O)CN1C(=O)S/C(=C\c2ccc3c(cnn3Cc3ccc(C(F)(F)F)cc3C(F)(F)F)c2)C1=O` [Compound 68] gave an EC50 of 124 nM.

`CN(C)CCCN1C(=O)S/C(=C\c2ccc3c(ccn3Cc3ccc(F)cc3C(F)(F)F)c2)C1=O` [Compound 252, (5Z)-3-[3-(Dimethylamino)propyl]-5-[(1-{[4-fluoro-2-(trifluoromethyl)phenyl]methyl}-1H-indol-5-yl)methylidene]-1,3-thiazolidine-2,4-dione] displayed an EC50 of 100 nM.

`O=C1S/C(=C\c2ccc3c(cnn3Cc3ccc(Cl)cc3C(F)(F)F)c2)C(=O)N1C[C@H]1CCCNC1` [Compound 96, (5Z)-5-({1-[4-Chloro-2-(trifluoromethyl)benzyl]-1H-indazol-5-yl}methylidene)-3-[(3S)-piperidin-3-ylmethyl]-1,3-thiazolidine-2,4-dione] had an EC50 of 67 nM.

Turning to `O=C1S/C(=C\c2ccc3c(cnn3Cc3ccc(Cl)cc3C(F)(F)F)c2)C(=O)N1C[C@@H]1CN2CCOC[C@H]2CO1` [Compound 205, (5Z)-5-({1-[4-Chloro-2-(trifluoromethyl)benzyl]-1H-indazol-5-yl}methylidene)-3-[(3S,9aS)-hexahydro-1H-[1,4]oxazino[3,4-c] [1,4]oxazin-3-ylmethyl]-1,3-thiazolidine-2,4-dione], the concentration for a half-maximal effect (EC50) came to 22 nM.

With `O=C1S/C(=C\c2ccc3c(cnn3Cc3ccc(Cl)cc3C(F)(F)F)c2)C(=O)N1CCc1cccnc1` [Compound 109, (5Z)-5-({1-[4-Chloro-2-(trifluoromethyl)benzyl]-1H-indazol-5-yl}methylidene)-3-(2-pyridin-3-ylethyl)-1,3-thiazolidine-2,4-dione], it took 152 nM to reach a half-maximal effect (EC50).

`CN1CC[C@@H](N2C(=O)S/C(=C\c3ccc4c(cnn4Cc4ccc(Cl)cc4C(F)(F)F)c3)C2=O)[C@H](O)C1` (relative stereo) [Compound 275, (5Z)-5-({1-[4-Chloro-2-(trifluoromethyl)-benzyl]-1H-indazol-5-yl}methylidene)-3-[trans-3-hydroxy-1-methylpiperidin-4-yl]-1,3-thiazolidine-2,4-dione] returned an EC50 of 23 nM.

For the compound `O=C1S/C(=C\c2ccc3c(cnn3Cc3ccc(Cl)cc3C(F)(F)F)c2)C(=O)N1C[C@H](O)CN1CC[C@@H](F)C1` [Compound 294, (5Z)-5-({1-[4-Chloro-2-(trifluoromethyl)benzyl]-1H-indazol-5-yl}methylidene)-3-{(2R)-3-[(3R)-3-fluoropyrrolidin-1-yl]-2-hydroxypropyl}-1,3-thiazolidine-2,4-dione], the EC50 was 63 nM.

As for `O=C1S/C(=C\c2ccc3c(cnn3Cc3ccc(Cl)cc3C(F)(F)F)c2)C(=O)N1C[C@@H]1C[C@@H](O)CN1` [Compound 182, (5Z)-5-({1-[4-Chloro-2-(trifluoromethyl)benzyl]-1H-indazol-5-yl}methylidene)-3-{[(2S,4R)-4-hydroxypyrrolidin-2-yl]methyl}-1,3-thiazolidine-2,4-dione], the EC50 was 96 nM.

In turn, `O=C1S/C(=C\c2ccc3c(cnn3Cc3ccc(Cl)cc3C(F)(F)F)c2)C(=O)N1CCN1CCN[C@@H](CO)C1` [Compound 282, (5Z)-5-({1-[4-Chloro-2-(trifluoromethyl)benzyl]-1H-indazol-5-yl}methylidene)-3-{2-[(3R)-3-(hydroxymethyl)piperazin-1-yl]ethyl}-1,3-thiazolidine-2,4-dione] registered an EC50 of 361 nM.

In turn, `Nc1nc(CN2C(=O)S/C(=C\c3ccc4c(cnn4Cc4ccc(Cl)cc4C(F)(F)F)c3)C2=O)cs1` [Compound 400, (5Z)-3-[(2-Amino-1,3-thiazol-4-yl)methyl]-5-({1-[4-chloro-2-(trifluoromethyl)benzyl]-1H-indazol-5-yl}methylidene)-1,3-thiazolidine-2,4-dione] registered an EC50 of 62 nM.

In turn, `CC(=O)NS(=O)(=O)CN1C(=O)S/C(=C\c2ccc3c(cnn3Cc3ccc(F)cc3C(F)(F)F)c2)C1=O` [Compound 64, N-({[(5Z)-5-({1-[4-Fluoro-2-(trifluoromethyl)benzyl]-1H-indazol-5-yl}methylidene)-2,4-dioxo-1,3-thiazolidin-3-yl)methyl}sulfonyl)acetamide] registered an EC50 of 485 nM.

`O=C1S/C(=C\c2ccc3c(cnn3Cc3ccc(C(F)(F)F)cc3C(F)(F)F)c2)C(=O)N1C[C@H]1COCCN1` [Compound 196, (5Z)-5-({1-[2,4-Bis(trifluoromethyl)benzyl]-1H-indazol-5-yl}methylidene)-3-[(3S)-morpholin-3-ylmethyl]-1,3-thiazolidine-2,4-dione]: a half-maximal response (EC50) required 50 nM.

In the case of `CCOC(=O)[C@@H]1CCC[C@H]1N1C(=O)S/C(=C\c2ccc3c(cnn3Cc3ccc(Cl)cc3C(F)(F)F)c2)C1=O` [Compound 141, Ethyl (1R,2R)-2-[(5Z)-5-({1-[4-chloro-2-(trifluoromethyl)benzyl]-1H-indazol-5-yl}methylidene)-2,4-dioxo-1,3-thiazolidin-3-yl]cyclopentanecarboxylate], the EC50 was found to be 183 nM.

For the compound `COCCN1CCN(N2C(=O)S/C(=C\c3ccc4c(cnn4Cc4ccc(Cl)cc4C(F)(F)F)c3)C2=O)CC1` [Compound 352, (5Z)-5-({1-[4-Chloro-2-(trifluoromethyl)benzyl]-1H-indazol-5-yl}methylidene)-3-[4-(2-methoxyethyl)piperazin-1-yl]-1,3-thiazolidine-2,4-dione], the concentration for a half-maximal effect (EC50) was determined as 25 nM.

Take `O=C1S/C(=C\c2ccc3c(cnn3Cc3ccc(Cl)cc3C(F)(F)F)c2)C(=O)N1CCN1CCNCC1` [Compound 163, (5Z)-5-({1-[4-Chloro-2-(trifluoromethyl)benzyl]-1H-indazol-5-yl}methylidene)-3-(2-piperazin-1-ylethyl)-1,3-thiazolidine-2,4-dione]: a half-maximal response (EC50) required 38 nM.

Turning to `CN(CCN1C(=O)S/C(=C\c2ccc3c(cnn3Cc3ccc(Cl)cc3C(F)(F)F)c2)C1=O)C(=O)C(F)(F)F` [Compound 394, N-{2-[(5Z)-5-({1-[4-Chloro-2-(trifluoromethyl)benzyl]-1H-indazol-5-yl}methylidene)-2,4-dioxo-1,3-thiazolidin-3-yl]ethyl}-2,2,2-trifluoro-N-methylacetamide], the EC50 amounted to 122 nM.

With `CS(=O)(=O)NN1C(=O)S/C(=C\c2ccc3c(cnn3Cc3ccc(F)cc3C(F)(F)F)c2)C1=O` [Compound 363, N-[(5Z)-5-({1-[4-Fluoro-2-(trifluoromethyl)benzyl]-1H-indazol-5-yl}methylidene)-2,4-dioxo-1,3-thiazolidin-3-yl]methanesulfonamide], the EC50 stood at 59 nM.

For the compound `O=C1S/C(=C\c2ccc3c(cnn3Cc3ccc(C(F)(F)F)cc3C(F)(F)F)c2)C(=O)N1C[C@@H]1COCCN1` [Compound 197, (5Z)-5-({1-[2,4-Bis(trifluoromethyl)benzyl]-1H-indazol-5-yl}methylidene)-3-[(3R)-morpholin-3-ylmethyl]-1,3-thiazolidine-2,4-dione], the response was half-maximal at 65 nM (EC50).

For the compound `O=C1S/C(=C\c2ccc3c(cnn3Cc3ccc(Cl)cc3C(F)(F)F)c2)C(=O)N1[C@@H]1CCOC1` [Compound 125, (5Z)-5-({1-[4-Chloro-2-(trifluoromethyl)benzyl]-1H-indazol-5-yl}methylidene)-3-[(3R)-tetrahydrofuran-3-yl]-1,3-thiazolidine-2,4-dione], the EC50 stood at 47 nM.

In turn, `CN1CCC(N2C(=O)S/C(=C\c3ccc4c(cnn4Cc4ccc(Cl)cc4C(F)(F)F)c3)C2=O)C(=O)C1` (stereo not shown) [Compound 342, (5Z)-5-({1-[4-Chloro-2-(trifluoromethyl)benzyl]-1H-indazol-5-yl}methylidene)-3-(1-methyl-3-oxopiperidin-4-yl)-1,3-thiazolidine-2,4-dione] showed an EC50 of 65 nM.

Compound `O=C1S/C(=C\c2ccc3c(cnn3Cc3ccc(Cl)cc3C(F)(F)F)c2)C(=O)N1C1(C(=O)O)CC1` [Compound 89, 1-[(5Z)-5-({1-[4-Chloro-2-(trifluoromethyl)benzyl]-1H-indazol-5-yl}methylidene)-2,4-dioxo-1,3-thiazolidin-3-yl]cyclopropanecarboxylic acid] returned an EC50 of 92 nM.

Compound `CS(=O)(=O)CCN1C(=O)S/C(=C\c2ccc3c(cnn3Cc3ccc(Cl)cc3C(F)(F)F)c2)C1=O` [Compound 129, (5Z)-5-({1-[4-Chloro-2-(trifluoromethyl)benzyl]-1H-indazol-5-yl}methylidene)-3-[2-(methylsulfonyl)ethyl]-1,3-thiazolidine-2,4-dione] came in with an EC50 of 18 nM.
